Results as given in patent US8192962B2, “Processes for detecting toxic substances” (Daikin Industries, Ltd., priority 2001, dated 2012).

Test system: Unknown protein yeast genes
Assay: DNA chip mRNA expression in yeast, unknown protein yeast genes (Table 1)
Type: cell-based, Saccharomyces cerevisiae S288C
Experimental: Yeast (Saccharomyces cerevisiae S288C (α SUC2mal mel gap2 CUP1)) were incubated at 25° C. on YPD medium (yeast extract 1%, polypepton 2%, glucose 2%). One of toxic chemical substances was added to the cells at logarithmic growth phase, and the cells were further incubated for two hours. Cells were cultured without any chemical substance in the same condition, and were used as control. Concentrations of the chemical substances were defined to inhibit the growth of the yeast but not lead to death.
After completion of the incubation, the culture was centrifuged to collect the cells. To the cells, sodium acetate buffer (50 mM sodium acetate, 10 mM EDTA, 1% SDS) was added, and the mixture was shaken at 65° C. for five minutes, followed by returning to room temperature, and obtaining the supernatant, of which the procedures were repeated two times. To the supernatant, ½ amount of a solution of phenol/chloroform was added, and the mixture was centrifuged to give a supernatant, which was added with an equal amount of chloroform, and the mixture was centrifuged to give a supernatant. To the supernatant, an equal amount of isopropanol containing 0.3 M sodium acetate was added, and the mixture was allowed to stand at room temperature for 30 minutes, after which the mixture was centrifuged to give a sediment of the whole RNAs. Seventy % ethanol was added to the sediment, and the mixture was again centrifuged to give a sediment, which was then dried and dissolved in water. mRNA was isolated from the whole RNAs as followings. In view of the fact that a poly A chain is attached to the 3′ terminus of mRNA, a polynucleotide having a poly T structure which was immobilized on the surface of latex beads was used to trap the mRNA, and then the mRNA was washed and eluted with spine column (Oligotex-dT30<Super>mRNA Purification Kit, Takara). Reverse transcription of the mRNA was conducted with a reverse transcriptase (Super Script II Reverse Transcriptase; catalogue No. 18064-014, GibcoBRL) using fluorescence-labeled nucleotides to give cDNAs that were introduced with Cy3-dUTP or Cy5-dUTP during the reverse transcription.
The labeled cDNAs were dissolved in TE buffer (10mM Tris-HCl/1 mM EDTA, pH8.0), and the solution was dropped on the DNA chip containing the whole genes of yeast (DNA Chip Research Inc. Japan) so that the cDNAs were hybridized on the DNA chip at 65° C. for over 12 hours. The fluoresces intensity of the DNA chip was read with a scanner, and the ratio relative to the fluorescence intensity resulting from the absence of chemical substance was estimated as the following, which is shown in Tables 1 to 9: […]

`S=C([S-])NCCNC(=S)[S-].[Zn+2]` [(11), zinc N,N′-ethylenebis(dithiocarbamate)] was tested, and the “The level of expressed mRNA in the presence of chemical substance/The level of expressed mRNA in the absence of chemical substance” value (yeast gene YKL153W, incubated two hours with chemical substance) was 2.1, the “The level of expressed mRNA in the presence of chemical substance/The level of expressed mRNA in the absence of chemical substance” value (yeast gene YKL195W, incubated two hours with chemical substance) was 1.0 and the “The level of expressed mRNA in the presence of chemical substance/The level of expressed mRNA in the absence of chemical substance” value (yeast gene YKR033C) was 0.3. The “The level of expressed mRNA in the presence of chemical substance/The level of expressed mRNA in the absence of chemical substance” value (yeast gene YKR091W, incubated two hours with chemical substance) was 1.1, the “The level of expressed mRNA in the presence of chemical substance/The level of expressed mRNA in the absence of chemical substance” value (yeast gene YLR054C, incubated two hours with chemical substance) was 0.7 and the “The level of expressed mRNA in the presence of chemical substance/The level of expressed mRNA in the absence of chemical substance” value (yeast gene YLR149C, incubated two hours with chemical substance) was 2.8. For the same compound, the “The level of expressed mRNA in the presence of chemical substance/The level of expressed mRNA in the absence of chemical substance” value (yeast gene YLR152C, incubated two hours with chemical substance) was 3.6, the “The level of expressed mRNA in the presence of chemical substance/The level of expressed mRNA in the absence of chemical substance” value (yeast gene YLR194C, incubated two hours with chemical substance) was 1.4 and the “The level of expressed mRNA in the presence of chemical substance/The level of expressed mRNA in the absence of chemical substance” value (yeast gene YLR324W, incubated two hours with chemical substance) was 0.9. For the same compound, the “The level of expressed mRNA in the presence of chemical substance/The level of expressed mRNA in the absence of chemical substance” value (yeast gene YLR350W, incubated two hours with chemical substance) was 0.9, the “The level of expressed mRNA in the presence of chemical substance/The level of expressed mRNA in the absence of chemical substance” value (yeast gene YLR387C, incubated two hours with chemical substance) was 0.9 and the “The level of expressed mRNA in the presence of chemical substance/The level of expressed mRNA in the absence of chemical substance” value (yeast gene YLR460C) was 14.3. The “The level of expressed mRNA in the presence of chemical substance/The level of expressed mRNA in the absence of chemical substance” value (yeast gene YML117W, incubated two hours with chemical substance) was 0.8, the “The level of expressed mRNA in the presence of chemical substance/The level of expressed mRNA in the absence of chemical substance” value (yeast gene YMR009W, incubated two hours with chemical substance) was 2.1 and the “The level of expressed mRNA in the presence of chemical substance/The level of expressed mRNA in the absence of chemical substance” value (yeast gene YMR067C, incubated two hours with chemical substance) was 1.1. The “The level of expressed mRNA in the presence of chemical substance/The level of expressed mRNA in the absence of chemical substance” value (yeast gene YMR090W) was 8.8, the “The level of expressed mRNA in the presence of chemical substance/The level of expressed mRNA in the absence of chemical substance” value (yeast gene YMR095C, incubated two hours with chemical substance) was 2.1 and the “The level of expressed mRNA in the presence of chemical substance/The level of expressed mRNA in the absence of chemical substance” value (yeast gene YMR097C, incubated two hours with chemical substance) was 1.5. For the same compound, the “The level of expressed mRNA in the presence of chemical substance/The level of expressed mRNA in the absence of chemical substance” value (yeast gene YMR102C, incubated two hours with chemical substance) was 1.5, the “The level of expressed mRNA in the presence of chemical substance/The level of expressed mRNA in the absence of chemical substance” value (yeast gene YMR107W, incubated two hours with chemical substance) was 3.0 and the “The level of expressed mRNA in the presence of chemical substance/The level of expressed mRNA in the absence of chemical substance” value (yeast gene YMR180C, incubated two hours with chemical substance) was 0.7. For the same compound, the “The level of expressed mRNA in the presence of chemical substance/The level of expressed mRNA in the absence of chemical substance” value (yeast gene YMR184W, incubated two hours with chemical substance) was 1.5, the “The level of expressed mRNA in the presence of chemical substance/The level of expressed mRNA in the absence of chemical substance” value (yeast gene YMR191W, incubated two hours with chemical substance) was 2.3 and the “The level of expressed mRNA in the presence of chemical substance/The level of expressed mRNA in the absence of chemical substance” value (yeast gene YMR295C, incubated two hours with chemical substance) was 1.2. For the same compound, the “The level of expressed mRNA in the presence of chemical substance/The level of expressed mRNA in the absence of chemical substance” value (yeast gene YMR316W, incubated two hours with chemical substance) was 1.5, the “The level of expressed mRNA in the presence of chemical substance/The level of expressed mRNA in the absence of chemical substance” value (yeast gene YNL044W, incubated two hours with chemical substance) was 1.1 and the “The level of expressed mRNA in the presence of chemical substance/The level of expressed mRNA in the absence of chemical substance” value (yeast gene YNL074C, incubated two hours with chemical substance) was 1.3. For the same compound, the “The level of expressed mRNA in the presence of chemical substance/The level of expressed mRNA in the absence of chemical substance” value (yeast gene YNL092W, incubated two hours with chemical substance) was 0.7, the “The level of expressed mRNA in the presence of chemical substance/The level of expressed mRNA in the absence of chemical substance” value (yeast gene YNL115C, incubated two hours with chemical substance) was 1.1 and the “The level of expressed mRNA in the presence of chemical substance/The level of expressed mRNA in the absence of chemical substance” value (yeast gene YNL156C, incubated two hours with chemical substance) was 1.4. For the same compound, the “The level of expressed mRNA in the presence of chemical substance/The level of expressed mRNA in the absence of chemical substance” value (yeast gene YNL234W, incubated two hours with chemical substance) was 1.3, the “The level of expressed mRNA in the presence of chemical substance/The level of expressed mRNA in the absence of chemical substance” value (yeast gene YNL281W, incubated two hours with chemical substance) was 1.6 and the “The level of expressed mRNA in the presence of chemical substance/The level of expressed mRNA in the absence of chemical substance” value (yeast gene YNL305C, incubated two hours with chemical substance) was 1.8. For the same compound, the “The level of expressed mRNA in the presence of chemical substance/The level of expressed mRNA in the absence of chemical substance” value (yeast gene YNR068C, incubated two hours with chemical substance) was 1.1, the “The level of expressed mRNA in the presence of chemical substance/The level of expressed mRNA in the absence of chemical substance” value (yeast gene YOL032W, incubated two hours with chemical substance) was 1.4 and the “The level of expressed mRNA in the presence of chemical substance/The level of expressed mRNA in the absence of chemical substance” value (yeast gene YOL036W, incubated two hours with chemical substance) was 2.2. For the same compound, the “The level of expressed mRNA in the presence of chemical substance/The level of expressed mRNA in the absence of chemical substance” value (yeast gene YOL047C, incubated two hours with chemical substance) was 0.9, the “The level of expressed mRNA in the presence of chemical substance/The level of expressed mRNA in the absence of chemical substance” value (yeast gene YOL071W, incubated two hours with chemical substance) was 4.3 and the “The level of expressed mRNA in the presence of chemical substance/The level of expressed mRNA in the absence of chemical substance” value (yeast gene YOL082W, incubated two hours with chemical substance) was 1.6. The “The level of expressed mRNA in the presence of chemical substance/The level of expressed mRNA in the absence of chemical substance” value (yeast gene YOL083W, incubated two hours with chemical substance) was 1.3, the “The level of expressed mRNA in the presence of chemical substance/The level of expressed mRNA in the absence of chemical substance” value (yeast gene YOL117W, incubated two hours with chemical substance) was 1.0 and the “The level of expressed mRNA in the presence of chemical substance/The level of expressed mRNA in the absence of chemical substance” value (yeast gene YOL131W, incubated two hours with chemical substance) was 1.4. The “The level of expressed mRNA in the presence of chemical substance/The level of expressed mRNA in the absence of chemical substance” value (yeast gene YOL150C) was 9.4, the “The level of expressed mRNA in the presence of chemical substance/The level of expressed mRNA in the absence of chemical substance” value (yeast gene YOL162W, incubated two hours with chemical substance) was 4.3 and the “The level of expressed mRNA in the presence of chemical substance/The level of expressed mRNA in the absence of chemical substance” value (yeast gene YOR019W, incubated two hours with chemical substance) was 1.7. The “The level of expressed mRNA in the presence of chemical substance/The level of expressed mRNA in the absence of chemical substance” value (yeast gene YOR197W, incubated two hours with chemical substance) was 1.0, the “The level of expressed mRNA in the presence of chemical substance/The level of expressed mRNA in the absence of chemical substance” value (yeast gene YPL087W, incubated two hours with chemical substance) was 2.5 and the “The level of expressed mRNA in the presence of chemical substance/The level of expressed mRNA in the absence of chemical substance” value (yeast gene YPL196W, incubated two hours with chemical substance) was 1.7. The “The level of expressed mRNA in the presence of chemical substance/The level of expressed mRNA in the absence of chemical substance” value (yeast gene YPL206C, incubated two hours with chemical substance) was 1.5, the “The level of expressed mRNA in the presence of chemical substance/The level of expressed mRNA in the absence of chemical substance” value (yeast gene YPL222W, incubated two hours with chemical substance) was 1.2 and the “The level of expressed mRNA in the presence of chemical substance/The level of expressed mRNA in the absence of chemical substance” value (yeast gene YPR023C, incubated two hours with chemical substance) was 1.7. For the same compound, the “The level of expressed mRNA in the presence of chemical substance/The level of expressed mRNA in the absence of chemical substance” value (yeast gene YPR151C, incubated two hours with chemical substance) was 1.4.
